“And” between values parts separate entries of the source, which are not always exact repeats. Identical values can stand only once.
Tests used:
human nSMase2 [1] = target: T1, human nSMase2 (Homo sapiens, UniProt Q9NY59); assay: 14C-SM confirmatory direct activity assay; format: biochemical; design: Full length human nSMase2 cDNA with a C-terminal Flag tag; host or cells: HEK293, stably transfected; crude cell lysate used as enzyme; settings: for IC50: [14C]-SM direct activity assay, human recombinant enzyme
T1 sequence (Q9NY59 1-655): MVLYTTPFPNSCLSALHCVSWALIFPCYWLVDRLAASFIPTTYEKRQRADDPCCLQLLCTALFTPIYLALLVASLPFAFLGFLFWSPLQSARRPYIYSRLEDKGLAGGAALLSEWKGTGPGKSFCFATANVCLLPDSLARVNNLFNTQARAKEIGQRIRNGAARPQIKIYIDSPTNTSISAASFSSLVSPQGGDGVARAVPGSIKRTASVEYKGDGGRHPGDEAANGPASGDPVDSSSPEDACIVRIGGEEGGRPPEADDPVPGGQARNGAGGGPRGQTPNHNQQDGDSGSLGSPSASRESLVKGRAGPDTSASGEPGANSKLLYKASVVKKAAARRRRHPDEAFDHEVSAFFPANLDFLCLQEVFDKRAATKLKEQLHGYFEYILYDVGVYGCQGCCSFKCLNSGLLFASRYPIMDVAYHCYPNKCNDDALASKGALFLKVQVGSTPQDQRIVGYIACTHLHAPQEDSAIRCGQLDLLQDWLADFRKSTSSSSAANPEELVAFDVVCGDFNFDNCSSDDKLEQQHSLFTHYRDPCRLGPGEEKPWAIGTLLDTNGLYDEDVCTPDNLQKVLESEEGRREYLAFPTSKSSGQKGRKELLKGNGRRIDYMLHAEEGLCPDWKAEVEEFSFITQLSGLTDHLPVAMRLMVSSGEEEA
Protocol: This assay was dependent on the direct hydrolysis of ^14C-labeled SM (^14C N-methyl groups in the phosphorylcholine) by human nSMase2. Optimization of assay conditions was accomplished according to the methods of Barbone et al.. Briefly, bovine [N-methyl-^14C]-sphingomyelin (specific activity […], Perkin Elmer) and phosphatidylinositol (Avanti Polar Lipids) were evaporated to dryness under a stream of nitrogen and resuspended at an equimolar concentration of 0.1 mM in water with 0.5% Triton X-100 (Sigma). The solution was vortexed for 30 min and then sonicated for 30 min. Assay conditions were as follows: 50 μl total volume per reaction, consisting of 20 μM SM, reaction buffer (100 mM Tris-HCl pH 7.5, 80 mM MgCl2, 0.1% Triton X-100); 10 μl cell lysate containing recombinant human nSMase2 (0.5–1 μg protein/assay) and 5 μl of compound in reaction buffer containing 10% DMSO. After 1 h incubation at 37°C the reaction was terminated by the addition of 30 μl of water and 175 μl of chloroform/methanol (2:1, v:v), followed by vigorous vortexing. Tubes were centrifuged for 5 min at 10,000 xg at room temperature to separate the organic bottom phase containing labeled SM and the aqueous upper phase containing ^14C-labeled-phosphorylcholine. An aliquot (50 μl) of the upper phase was transferred to a vial with 10 ml of scintillant and counted for 2 min on a Beckman LS-6000IC scintillation counter. Enzyme activity was directly proportional to the disintegrations per min (dpm) resulting from the generation of ^14C-phosphorylcholine.

[2] = system: rat primary hippocampal neurons; assay: Hippocampal neuronal survival (Hoechst 33342); format: cell-based
Protocol: All animal procedures were approved by the Johns Hopkins University Animal Care and Use Committee. Primary hippocampal neurons were prepared from day 18 decapitated embryos of Sprague-Dawley rats following previously described methods. Cells were seeded on polyethyleneimine (PEI)-coated slides in 12-well plates and cultured between 14–21 days. […] After 18 h, cells were stained with 50 μg/ml Hoeschst 33342 for 20 min and then fixed with 4% paraformaldehyde for 30 min. The number of living and apoptotic cells was determined by fluorescence microscopy. A minimum of 500 cells were counted per treatment condition. Results were normalized to control untreated cells and were representative of at least two independent experiments conducted in triplicate. Statistical evaluation of the data was done by Student’s t-test.

[3] = system: rat primary cortical neurons; assay: Lipid extraction and ceramide measurements (LC-MS/MS); format: cell-based
Protocol: Primary cortical neurons were prepared from embryonic day 18 Sprague-Dawley rats following previously described methods. […] A crude lipid extract from cortical neurons was obtained using a modified Bligh and Dyer procedure. Ceramide C12:0 (Avanti Polar Lipids) was included as an internal standard. The organic layers were dried in a nitrogen evaporator (Organomation Associates Inc.) and stored at -80°C. Dried organic layers were resuspended in methanol just prior to analysis. The detection and quantitation of individual ceramide species was performed on a high-performance liquid chromatography (HPLC) coupled electrospray ionization triple quadrupole mass spectrometer (API3000, AB Sciex Inc.) using settings similar to those described in previous studies. Samples were handled by a CTC PAL autosampler (LEAP Technologies Inc.) and injected into an HPLC (PerkinElmer) equipped with a reverse phase C18 column (Phenomex). […] The eluted sample was injected into the electrospray ionization source and detection of each ceramide species was conducted by multiple reaction monitoring. Spectral analysis was conducted using MultiQuant (AB Sciex Inc.), individually validated and normalized to the internal standard. Final data for each ceramide species in counts per second was expressed as the ratio of analyte/internal standard.

human nSMase2 [4] = target: T1, human nSMase2; assay: Fluorescence (Amplex red coupled) nSMase2 activity assay; format: biochemical; design: Full length human nSMase2 cDNA with a C-terminal Flag tag; crude cell lysate used as enzyme
Protocol: The production of the latter was coupled to a dephosphorylation reaction catalyzed by alkaline phosphatase (4 U/ml) to produce choline, followed by oxidation of choline by choline oxidase (0.1 U/ml) to produce betaine and H2O2, which in the presence of horseradish peroxidase (HRP, 1U/ml) and 50 μM Amplex red, generates the fluorescent molecule resorufin (Life Technologies). Substrate stock solution was prepared in 2% Triton X-100, vortexed and sonicated for 30 min. Reactions were carried out for 1 h at 37°C in 100 mM Tris-HCl pH 7.4, 10 mM MgCl2, 0.2% Triton X-100 and the generation of the fluorescent product was monitored by measuring relative florescence units (RFU) with excitation at 530 nm and emission at 590 nm (Fig 1). This assay was optimized for 384-well format (50 μl total volume per well) based on linearity of the enzymatic activity with respect to time, as well as substrate and enzyme concentrations. […] This fluorescence assay was used for compound screening and IC50 value determinations, based on duplicate eight-point dose response curves.

[5] = TNF-a: 100 ng/ml TNF-α for 2 min

Compound: Cc1ccccc1-c1[nH]c(=S)[nH]c(=O)c1Cc1c(O)ccc2ccccc12 [compound 6]
- %Inhibition (human nSMase2 [1]; Log [compound] -4.0): 95.0% and 94.0%
- %Inhibition (human nSMase2 [1]; Log [compound] -5.0): 80.0% and 79.0%
- %Inhibition (human nSMase2 [1]; Log [compound] -6.0): 22.0% and 21.0%
- %Inhibition (human nSMase2 [1]; Log [compound] -7.0): 2.0% and 0.0%
- %Inhibition (human nSMase2 [1]; Log [compound] -8.0): -8.0% and -11.0%
- %Inhibition (human nSMase2 [1]; Log [compound] -9.0): -1.0% and -3.0%
- %Inhibition (human nSMase2 [1]; Log [compound] -10.0): -11.0% and -10.0%
- IC50 (human nSMase2 [1]): 3 µM

Compound: O=c1[nH]c(=S)[nH]c(-c2ccc(Br)cc2)c1Cc1c(O)ccc2ccccc12 [compound 7]
- IC50 (human nSMase2 [1]): 2 ± 1 µM

Compound: O=c1[nH]c(=S)[nH]c(-c2cccc(Cl)c2)c1Cc1c(O)ccc2ccccc12 [compound 8]
- IC50 (human nSMase2 [1]): 7 ± 1 µM

Compound: O=c1[nH]c(=S)[nH]c(-c2ccccc2F)c1Cc1c(O)ccc2ccccc12 [compound 9]
- IC50 (human nSMase2 [1]): 6 ± 3 µM

Compound: O=P(O)(O)C(O)(Cn1ccnc1)P(=O)(O)O [zoledronic acid, reference compound]
- neuron survival, Mean (normalized to control untreated cells) ([2]; 100 ng/ml IL1β 18 h, 10 µM compound): 84.88
- neuron survival, Mean (normalized to control untreated cells) ([2]; 100 ng/ml IL1β 18 h, 25 µM compound): 85.75
- neuron survival, Mean (normalized to control untreated cells) ([2]; 100 ng/ml TNFα 18 h, 10 µM compound): 80.07
- neuron survival, Mean (normalized to control untreated cells) ([2]; 100 ng/ml TNFα 18 h, 25 µM compound): 81.28

Compound: TNF-α
- Ceramide d18:1/16:0, ratio analyte/internal standard [3, 5]: 2.626 and 2.724 and 1.914 and 2.181 and 2.47 and 2.215
- Ceramide d18:1/18:0, ratio analyte/internal standard [3, 5]: 9.562 and 9.737 and 7.685 and 8.892 and 9.601 and 8.529
- Ceramide d18:1/20:0, ratio analyte/internal standard [3, 5]: 0.6563 and 0.629 and 0.4932 and 0.6036 and 0.6125 and 0.6685
- Ceramide d18:1/22:0, ratio analyte/internal standard [3, 5]: 0.2034 and 0.2174 and 0.1793 and 0.213 and 0.2196 and 0.1978
- Ceramide d18:1/24:0, ratio analyte/internal standard [3, 5]: 0.2705 and 0.2427 and 0.2002 and 0.2059 and 0.2011 and 0.2312
- Ceramide d18:1/24:1, ratio analyte/internal standard [3, 5]: 0.2934 and 0.2773 and 0.185 and 0.2472 and 0.2529 and 0.2866
- Dihexosylceramides d18:1/16:0, ratio analyte/internal standard [3, 5]: 0.0212 and 0.02618 and 0.02908 and 0.01607 and 0.02926 and 0.02318
- Dihexosylceramides d18:1/18:0, ratio analyte/internal standard [3, 5]: 0.1307 and 0.1534 and 0.1151 and 0.09786 and 0.1336 and 0.132
- Dihydroceramides d18:0/18:0, ratio analyte/internal standard [3, 5]: 0.1552 and 0.1446 and 0.1353 and 0.136 and 0.1435 and 0.1236
- Monohexosylceramides d18:1/16:0, ratio analyte/internal standard [3, 5]: 1.65E-01 and 1.78E-01 and 1.43E-01 and 1.25E-01 and 1.46E-01 and 1.28E-01
- Monohexosylceramides d18:1/18:0, ratio analyte/internal standard [3, 5]: 8.33E-01 and 9.27E-01 and 8.86E-01 and 8.09E-01 and 8.11E-01 and 9.45E-01
- Monohexosylceramides d18:1/20:0, ratio analyte/internal standard [3, 5]: 1.68E-01 and 1.71E-01 and 1.46E-01 and 1.34E-01 and 1.36E-01
- Monohexosylceramides d18:1/22:0, ratio analyte/internal standard [3, 5]: 6.26E-02 and 5.07E-02 and 4.08E-02 and 5.38E-02 and 5.08E-02 and 5.16E-02
- Monohexosylceramides d18:1/24:0, ratio analyte/internal standard [3, 5]: 4.46E-02 and 4.59E-02 and 3.01E-02 and 3.48E-02 and 3.50E-02 and 3.93E-02
- Monohexosylceramides d18:1/24:1, ratio analyte/internal standard [3, 5]: 9.28E-02 and 9.45E-02 and 8.80E-02 and 6.42E-02 and 8.57E-02 and 6.27E-02
- effect on long chain ceramide levels ([3]; rat primary cortical neurons): rapid increase

Compound: phosphatidylserine
- effect on human nSMase2 activity (human nSMase2 [4]; 20 μM SM/PS at equimolar concentration (S5 Fig)): did not significantly affect

Compound: sphingomyelin [SM]
- enzymatic activity (human nSMase2 [4]; [SM] 3.91 µM): 212.26 RFU
- enzymatic activity (human nSMase2 [4]; [SM] 7.81 µM): 311.45 RFU
- enzymatic activity (human nSMase2 [4]; [SM] 15.63 µM): 459.12 RFU
- enzymatic activity (human nSMase2 [4]; [SM] 31.25 µM): 722.04 RFU
- enzymatic activity (human nSMase2 [4]; [SM] 62.50 µM): 1075.56 RFU
- enzymatic activity (human nSMase2 [4]; [SM] 125.00 µM): 1331.12 RFU
- enzymatic activity (human nSMase2 [4]; [SM] 250.00 µM): 1431.87 RFU
- enzymatic activity (human nSMase2 [4]; [SM] 500.00 µM): 1408.02 RFU

— PMC4444023 (PLoS ONE, 2015)
